# Laboratory results: US9290467B2, “Cyclic amides” (Hoffmann-La Roche Inc., priority 2012, dated 2016)
# pIC50: −log10 of the molar value.
# Molecular target: Cathepsin L (Homo sapiens (Human), UniProt P07711)
# Experiment: Cathepsin enzyme inhibition assay (fluorogenic peptide substrate Z-Val-Val-Arg-AMC)
# Assay type: biochemical
# Settings: enzyme 1 nM, substrate 20 μM, pH 6.5
# Protocol: Enzyme activity is measured by observing the increase in fluorescence intensity caused by cleavage of a peptide substrate containing a fluorophore whose emission is quenched in the intact peptide.
# Assay buffer: 100 mM potassium phosphate pH 6.5, EDTA-Na 5 mM, Triton X-100 0.001%, DDT 5 mM.
# Enzymes (all at 1 nM): human and mouse Cathepsin S, Cat K, Cat B, Cat L
# Substrate (20 μM): Z-Val-Val-Arg-AMC, except for Cat K which uses Z-Leu-Arg-AMC (both from Bachem).
# AMC=7-Amino-4-Methyl-Coumarin.
# Excitation 360 nm, Emission 465 nm.
# Enzyme is added to the substance dilutions in 96-well microtitre plates and the reaction is started with substrate. […] IC50 are calculated by standard methods. The results are expressed in μM in the following table.
# Sequence of Cathepsin L (P07711 114-333): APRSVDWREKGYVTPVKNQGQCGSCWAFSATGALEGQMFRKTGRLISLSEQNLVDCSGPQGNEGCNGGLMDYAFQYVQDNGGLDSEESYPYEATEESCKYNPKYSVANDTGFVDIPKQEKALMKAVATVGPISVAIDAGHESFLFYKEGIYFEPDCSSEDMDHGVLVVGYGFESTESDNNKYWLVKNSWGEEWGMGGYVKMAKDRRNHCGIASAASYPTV
row,SMILES,pIC50
1,"N#CC1(NC(=O)[C@@H]2Cc3ccc(c(Cl)c3)OCCCCOc3cc4c(cc3C(=O)N2)CCCC4)CC1 [Example 29, (12S)-22-chloro-N-(1-cyanocyclopropyl)-14-oxo-2,3,4,5,11,12,13,14,16,17,18,19-dodecahydro-7,10-ethenonaphtho[2,3-b][1,12,5]dioxazacyclohexadecine-12-carboxamide]",7.89
2,"N#CC1(NC(=O)[C@@H]2Cc3ccc(c(I)c3)OCCCCOc3ccccc3C(=O)N2)CC1 [Example 30, (S)-19-Iodo-5-oxo-12,17-dioxa-4-aza-tricyclo[16.2.2.0*6,11*]docosa-1(21),6(11),7,9,18(22),19-hexaene-3-carboxylic acid (1-cyano-cyclopropyl)-amide]",6.74
3,"N#CC1(NC(=O)[C@@H]2Cc3ccc(c(I)c3)OCCCCOc3ccc(Cl)cc3C(=O)N2)CC1 [Example 31, (S)-8-Chloro-19-iodo-5-oxo-12,17-dioxa-4-aza-tricyclo[16.2.2.0*6,11*]docosa-1(21),6(11),7,9,18(22),19-hexaene-3-carboxylic acid (1-cyano-cyclopropyl)-amide]",7.92
4,"N#CC1(NC(=O)[C@@H]2Cc3ccc(c(Cl)c3)OC/C=C/COc3ccc(F)cc3C(=O)N2)CC1 [Example 32, (E)-(S)-19-Chloro-8-fluoro-5-oxo-12,17-dioxa-4-aza-tricyclo[16.2.2.0*6,11*]docosa-1(21),6,8,10,14,18(22),19-heptaene-3-carboxylic acid (1-cyano-cyclopropyl)-amide]",7.80
5,"N#CC1(NC(=O)[C@@H]2Cc3ccc(c(Cl)c3)OC/C=C/COc3cc(Cl)ccc3C(=O)N2)CC1 [Example 33, (E)-(S)-9,19-Dichloro-5-oxo-12,17-dioxa-4-aza-tricyclo[16.2.2.0*6,11*]docosa-1(21),6,8,10,14,18(22),19-heptaene-3-carboxylic acid (1-cyano-cyclopropyl)-amide]",7.14
6,"N#CC1(NC(=O)[C@@H]2Cc3ccc(c(Cl)c3)OC/C=C/COc3ccc(C(F)(F)F)cc3C(=O)N2)CC1 [Example 34, (E)-(S)-19-Chloro-5-oxo-8-trifluoromethyl-12,17-dioxa-4-aza-tricyclo[16.2.2.0*6,11*]docosa-1(21),6,8,10,14,18(22),19-heptaene-3-carboxylic acid (1-cyano-cyclopropyl)-amide]",8.05
7,"N#CC1(NC(=O)[C@@H]2Cc3ccc(c(Cl)c3)OCCCCOc3ccc(F)cc3C(=O)N2)CC1 [Example 35, (S)-19-Chloro-8-fluoro-5-oxo-12,17-dioxa-4-aza-tricyclo[16.2.2.0*6,11*]docosa-1(21),6,8,10,18(22),19-hexaene-3-carboxylic acid (1-cyano-cyclopropyl)-amide]",7.64
8,"N#CC1(NC(=O)[C@@H]2Cc3ccc(c(Cl)c3)OCCCCOc3cc(Cl)ccc3C(=O)N2)CC1 [Example 36, (S)-9,19-Dichloro-5-oxo-12,17-dioxa-4-aza-tricyclo[16.2.2.0*6,11*]docosa-1(21),6,8,10,18(22),19-hexaene-3-carboxylic acid (1-cyano-cyclopropyl)-amide]",7.30
9,"N#CC1(NC(=O)[C@@H]2Cc3ccc(c(Cl)c3)OCCCCOc3ccc(C(F)(F)F)cc3C(=O)N2)CC1 [Example 37, (S)-19-Chloro-5-oxo-8-trifluoromethyl-12,17-dioxa-4-aza-tricyclo[16.2.2.0*6,11*]docosa-1(21),6,8,10,18(22),19-hexaene-3-carboxylic acid (1-cyano-cyclopropyl)-amide]",8.05
10,"N#CC1(NC(=O)[C@@H]2Cc3ccc(c(Cl)c3)OC/C=C/CNc3ccc(Br)cc3C(=O)N2)CC1 [Example 38, (E)-(S)-8-Bromo-19-chloro-5-oxo-17-oxa-4,12-diaza-tricyclo[16.2.2.0*6,11*]docosa-1(21),6,8,10,14,18(22),19-heptaene-3-carboxylic acid (1-cyano-cyclopropyl)-amide]",8.00
11,"CC(C)(C)OC(=O)N1CC(c2ccc3c(c2)C(=O)N[C@H](C(=O)NC2(C#N)CC2)Cc2ccc(c(Cl)c2)OC/C=C/CO3)C1 [Example 39, 3-[(E)-(S)-19-Chloro-3-(1-cyano-cyclopropylcarbamoyl)-5-oxo-12,17-dioxa-4-aza-tricyclo[16.2.2.0*6,11*]docosa-1(21),6,8,10,14,18(22),19-heptaen-8-yl]-azetidine-1-carboxylic acid tert-butyl ester]",7.58
12,"N#CC1(NC(=O)[C@@H]2Cc3ccc(c(Cl)c3)OC/C=C/COc3ccc(C4CNC4)cc3C(=O)N2)CC1 [Example 41, (E)-(S)-8-Azetidin-3-yl-19-chloro-5-oxo-12,17-dioxa-4-aza-tricyclo[16.2.2.0*6,11*]docosa-1(21),6,8,10,14,18(22),19-heptaene-3-carboxylic acid (1-cyano-cyclopropyl)-amide]",8.28
13,"CC(C)(C)OC(=O)N1CC(c2ccc3c(c2)C(=O)N[C@H](C(=O)NC2(C#N)CC2)Cc2ccc(c(Cl)c2)OCCCCO3)C1 [Example 42, 3-[(S)-19-Chloro-3-(1-cyano-cyclopropylcarbamoyl)-5-oxo-12,17-dioxa-4-aza-tricyclo[16.2.2.0*6,11*]docosa-1(21),6,8,10,18(22),19-hexaen-8-yl]-azetidine-1-carboxylic acid tert-butyl ester]",7.59
14,"N#CC1(NC(=O)[C@@H]2Cc3ccc(c(Cl)c3)OCCCCOc3ccc(C4CNC4)cc3C(=O)N2)CC1 [Example 43, (S)-8-Azetidin-3-yl-19-chloro-5-oxo-12,17-dioxa-4-aza-tricyclo[16.2.2.0*6,11*]docosa-1(21),6,8,10,18(22),19-hexaene-3-carboxylic acid (1-cyano-cyclopropyl)-amide]",8.51
15,"N#CC1(NC(=O)[C@@H]2Cc3ccc(c(Cl)c3)OC/C=C/COc3c(F)cc(F)cc3C(=O)N2)CC1 [Example 44, (E-Z)—(S)-19-Chloro-8,10-difluoro-5-oxo-12,17-dioxa-4-aza-tricyclo[16.2.2.0*6,11*]docosa-1(21),6,8,10,14,18(22),19-heptaene-3-carboxylic acid (1-cyano-cyclopropyl)-amide]",8.04
16,"N#CC1(NC(=O)[C@@H]2Cc3ccc(c(Cl)c3)OC/C=C/COc3ccc(F)c(F)c3C(=O)N2)CC1 [Example 45, (E)-(S)-19-Chloro-7,8-difluoro-5-oxo-12,17-dioxa-4-aza-tricyclo[16.2.2.0*6,11*]docosa-1(21),6,8,10,14,18(22),19-heptaene-3-carboxylic acid (1-cyano-cyclopropyl)-amide]",8.37
17,"N#CC1(NC(=O)[C@@H]2Cc3ccc(c(Cl)c3)OC/C=C\COc3ccc(F)c(F)c3C(=O)N2)CC1 [Example 46, (Z)—(S)-19-Chloro-7,8-difluoro-5-oxo-12,17-dioxa-4-aza-tricyclo[16.2.2.0*6,11*]docosa-1(21),6,8,10,14,18(22),19-heptaene-3-carboxylic acid (1-cyano-cyclopropyl)-amide]",7.27
18,"CSc1ccc2c(c1)C(=O)N[C@H](C(=O)NC1(C#N)CC1)Cc1ccc(c(Cl)c1)OC/C=C/CO2 [Example 47, (E)-(S)-19-Chloro-8-methylsulfanyl-5-oxo-12,17-dioxa-4-aza-tricyclo[16.2.2.0*6,11*]docosa-1(21),6,8,10,14,18(22),19-heptaene-3-carboxylic acid (1-cyano-cyclopropyl)-amide]",8.80
